Assay results from US5478841A, “Fluorinated quinolones, process for their preparation and pharmaceutical preparations containing same” (Bouchara S.A., priority 1992, dated 1995).
Values after ≈ are worked out from the molar mass of the structure shown.

How the values were obtained:
E. coli ATCC 25922 = test: MIC/MBC, microdilution in Mueller-Hinton broth, E. coli; type: cell-based; details: Escherichia coli; for MIC: ATCC25922, 18 h at 37° C., about 10^6 bacteria/ml, read-out: MINIMAL INHIBITORY CONCENTRATION (MIC); for MBC: ATCC25922, read-out: MINIMAL BACTERICIDAL CONCENTRATION (MBC)
Protocol: (§1) The products were tested vis-a-vis 7 reference strains
Escherichia coli ATCC 25922
(§2) The preparation of these mother solutions produced, varied according to the molecules as a function of solubility criteria.
(§3) The inoculation is carried out by adding to each cupule 10 μl of a dilution in physiological water of an 18 hour broth of heart/brain broth such that each cupule contains about 10^6 bacteria/ml.
(§4) The minimal inhibitory concentration is read as the first concentration of antibiotic giving no culture which is macroscopically visible after incubation for 18 hours at 37° C.

S. aureus ATCC 25923 = test: MIC/MBC, microdilution in Mueller-Hinton broth, S. aureus ATCC 25923; type: cell-based; details: Staphylococcus aureus; for MIC: ATCC25923, 18 h at 37° C., about 10^6 bacteria/ml, read-out: MINIMAL INHIBITORY CONCENTRATION (MIC); for MBC: ATCC25923, read-out: MINIMAL BACTERICIDAL CONCENTRATION (MBC)
Protocol: as §1
Straphylococcus aureus ATCC 25923
as §2, §3, §4

S. faecalis ATCC 25922 = test: MIC/MBC, microdilution in Mueller-Hinton broth, S. faecalis; type: cell-based, Streptococcus faecalis; details: Enterococcus faecalis, ATCC25922, 18 h, read-out: MINIMAL INHIBITORY CONCENTRATION (MIC)
Protocol: (§5) The products were tested vis-a-vis 7 reference strains […]
as §2, §3, §4

S. faecalis = test: as above; type: cell-based, Streptococcus faecalis; details: Enterococcus faecalis, ATCC25922, read-out: MINIMAL BACTERICIDAL CONCENTRATION (MBC)
Protocol: as §5, §2, §3, §4

P. aeruginosa ATCC 22853 = test: MIC/MBC, microdilution in Mueller-Hinton broth, P. aeruginosa; type: cell-based; details: Pseudomonas aeruginosa; for MIC: ATCC22853, 18 h, read-out: MINIMAL INHIBITORY CONCENTRATION (MIC); for MBC: ATCC22853, read-out: MINIMAL BACTERICIDAL CONCENTRATION (MBC)
Protocol: as §1
Pseudomonas aeruginosa ATCC 22853
as §2, §3, §4

[1] = tested on: Acinetobacter Baumanii ATCC 17904; test: MIC/MBC, microdilution in Mueller-Hinton broth, Acinetobacter; type: cell-based; details: Acinetobacter baumannii
Protocol: as §1
Acinetobacter calcoaceticus variety anitratum ATCC 17903
as §2, §3, §4

solubility in water = type: physicochemical; details: hydrochloride, pale yellow crystals
S. aureus CB-951 = test: MIC/MBC, microdilution in Mueller-Hinton broth, S. aureus CB-951; type: cell-based; details: Staphylococcus aureus, CB951, S. aureus CB-951, methicillino resistant, pefloxacino resistant
Protocol: as §1
Staphylococcus aureus CB 951
as §2, §3, §4

Compound | MIC (E. coli ATCC 25922) [µg/mL] | MBC (E. coli ATCC 25922) [µg/mL] | MIC (S. aureus ATCC 25923) [µg/mL] | MBC (S. aureus ATCC 25923) [µg/mL] | MIC (S. faecalis ATCC 25922) [µg/mL] | MBC (S. faecalis) [µg/mL] | MIC (P. aeruginosa ATCC 22853) [µg/mL] | MBC (P. aeruginosa ATCC 22853) [µg/mL] | MIC ([1]; ATCC17904, 18 h, read-out: MINIMAL INHIBITORY CONCENTRATION (MIC)) [µg/mL] | MBC ([1]; ATCC17904, read-out: MINIMAL BACTERICIDAL CONCENTRATION (MBC)) [µg/mL] | solubility in water (solubility in water) | MIC (S. aureus CB-951; 18 h at 37° C., about 10^6 bacteria/ml, read-out: MINIMAL INHIBITORY CONCENTRATION (MIC)) [µg/mL] | MBC (S. aureus CB-951; read-out: MINIMAL BACTERICIDAL CONCENTRATION (MBC)) [µg/mL]
NCC1CCN(c2cc3c(cc2F)c(=O)c(C(=O)O)cn3C2CC2)CC1 [Compound 5, 6-fluoro-1-cyclopropyl-7-((4-aminomethyl)-1-piperidinyl)-quinolone-3-carboxylic acid] | 0.25 (≈ 0.696 µM) | 0.5 (≈ 1.39 µM) | 0.25 (≈ 0.696 µM) | 0.5 (≈ 1.39 µM) | – | – | – | – | – | – | – | – | –
CC(C)n1cc(C(=O)O)c(=O)c2cc(F)c(N3CCC(CN)CC3)c(F)c21 [Compound 7, 6,8-difluoro-1-isopropyl-7-((4-aminomethyl)-1-piperidinyl)-quinolone-3-carboxylic acid] | 1.6 (≈ 4.22 µM) | 1.6 (≈ 4.22 µM) | 3.2 (≈ 8.43 µM) | 6.4 (≈ 16.9 µM) | 3.2 (≈ 8.43 µM) | 25.6 (≈ 67.5 µM) | 25.6 (≈ 67.5 µM) | > 51.2 | – | – | – | – | –
NCC1CCN(c2c(F)cc3c(=O)c(C(=O)O)cn(C4CC4)c3c2F)CC1 [Compound 1, 6,8-difluoro-7-[(4-aminomethyl)-1-piperdinyl]-1-(1-cyclopropyl)-4-oxo-1,4-dihydroquinolinyl-3-carboxylic acid] | 2 (≈ 5.3 µM) | 4 (≈ 10.6 µM) | 0.06 (≈ 0.159 µM) | 0.06 (≈ 0.159 µM) | 1 (≈ 2.65 µM) | 1 (≈ 2.65 µM) | > 16 | > 16 | 0.03 (≈ 0.0795 µM) | 0.03 (≈ 0.0795 µM) | moderately soluble in water | 0.25 (≈ 0.662 µM) | 0.25 (≈ 0.662 µM)
